In US7736677B2 (Metaproteomics, LLC, priority 2001, dated 2010):
Marks after values point to notes of the source that are not given here.

Columns and labels:
PKCβII = PKCβII (Homo sapiens, UniProt P05771); test: KinaseProfiler Assay; type: biochemical; details: 5 ug/ml, read-out: effect (as % of Control)
PKBγ = PKBγ (Homo sapiens, UniProt Q9Y243); test: KinaseProfiler Assay; type: biochemical; details: 5 ug/ml, read-out: effect (as % of Control)
IL-6 [1] = test: IL-6 secretion from insulin-resistant 3T3-L1 adipocytes; type: cell-based, murine; details: high insulin
adiponectin [2] = test: Adiponectin secretion from TNFα-treated 3T3-L1 adipocytes; type: cell-based, murine
Protocol: For two days, the cells were allowed grow to reach confluence. […] Adiponectin Assay—The adiponectin secreted into the medium was quantified using the Mouse Adiponectin Quantikine® Immunoassay kit with no modifications (R&D Systems, Minneapolis, Minn.). […] Statistical Calculations and Interpretation—All assays were preformed in duplicate. […] Differences among the doses and test agents were determined using the Student's t-test without correction for multiple comparisons; the nominal five percent probability of a type I error was selected.

IL-6 [3] = test: IL-6 secretion in LPS/3T3-L1 adipocytes; type: cell-based, murine; details: at the dose providing maximum inhibition; for IL-6 Index: indexed to LPS control
adiponectin [4] = test: Adiponectin secretion in LPS/3T3-L1 adipocytes; type: cell-based, murine; details: for Concentration of maximum stimulation of adiponectin secretion: LPS-treated D5 3T3-L1 adipocytes; for induction of adiponectin secretion: any of the doses tested
db/db mice = type: in vivo, mouse; details: three consecutive days
adiponectin [5] = test: Adiponectin secretion from insulin-resistant 3T3-L1 adipocytes; type: cell-based, murine
DBA/J mice = test: Collagen induced rheumatoid arthritis murine model; type: in vivo, mouse
IL-6 [6] = test: IL-6 secretion from TNFα-treated 3T3-L1 adipocytes; type: cell-based, murine; details: 10 ng TNFα/ml
[7] = at the concentration of maximum stimulation

PKBγ, sequence (Q9Y243 whole entry): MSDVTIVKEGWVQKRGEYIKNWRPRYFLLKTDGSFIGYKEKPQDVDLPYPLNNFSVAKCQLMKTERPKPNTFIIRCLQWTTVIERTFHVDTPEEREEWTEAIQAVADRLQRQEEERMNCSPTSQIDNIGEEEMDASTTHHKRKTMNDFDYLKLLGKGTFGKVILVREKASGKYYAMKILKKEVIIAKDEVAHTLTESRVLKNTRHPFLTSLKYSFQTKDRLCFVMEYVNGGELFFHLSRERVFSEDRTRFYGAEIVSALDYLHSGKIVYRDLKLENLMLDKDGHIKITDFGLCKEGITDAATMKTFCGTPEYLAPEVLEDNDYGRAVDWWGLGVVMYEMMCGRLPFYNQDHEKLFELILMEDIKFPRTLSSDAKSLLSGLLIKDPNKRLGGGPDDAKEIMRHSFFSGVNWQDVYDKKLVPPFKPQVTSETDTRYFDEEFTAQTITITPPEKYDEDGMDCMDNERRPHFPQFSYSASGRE
PKCβII, sequence (P05771 1-673 isoform P05771-2): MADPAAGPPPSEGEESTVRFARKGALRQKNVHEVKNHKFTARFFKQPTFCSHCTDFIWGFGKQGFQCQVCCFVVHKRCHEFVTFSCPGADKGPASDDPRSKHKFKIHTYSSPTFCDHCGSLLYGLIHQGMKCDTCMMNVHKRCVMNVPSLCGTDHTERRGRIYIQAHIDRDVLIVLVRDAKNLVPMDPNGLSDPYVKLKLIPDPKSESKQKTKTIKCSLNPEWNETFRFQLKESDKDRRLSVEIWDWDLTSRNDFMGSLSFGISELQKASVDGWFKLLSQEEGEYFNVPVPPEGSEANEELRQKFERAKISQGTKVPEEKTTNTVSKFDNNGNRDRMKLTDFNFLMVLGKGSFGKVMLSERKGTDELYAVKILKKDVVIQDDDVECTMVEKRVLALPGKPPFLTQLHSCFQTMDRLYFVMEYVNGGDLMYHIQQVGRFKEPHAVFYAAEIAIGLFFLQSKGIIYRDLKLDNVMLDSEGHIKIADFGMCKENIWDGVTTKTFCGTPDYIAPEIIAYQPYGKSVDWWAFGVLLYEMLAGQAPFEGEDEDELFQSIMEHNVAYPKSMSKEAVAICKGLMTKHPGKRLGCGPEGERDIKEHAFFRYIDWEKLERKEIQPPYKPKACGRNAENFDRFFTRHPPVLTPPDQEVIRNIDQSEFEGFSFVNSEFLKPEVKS

With COc1cc(O)c(CC=C(C)C)c(O)c1C(=O)/C=C/c1ccc(O)cc1 [Xanthohumol, xanthohumol] the remaining activity at 5 µg/mL (PKCβII) was 108%, the remaining activity at 5 µg/mL (PKBγ) was 104% and the IL-6 secretion (IL-6 [1]) was “Significant decreases in IL-6 secretion”.
CCc1ccc(CCOc2ccc(CC3SC(=O)NC3=O)cc2)nc1 (centres unmarked) [Pioglitazone, pioglitazone] was tested, and the “Concentration of maximum adiponectin secretion over four doses” value (adiponectin [2]; 10 ng TNFα/ml, Example 17) was 1.25 µg/mL, the “Adiponectin Index, Observed” value (adiponectin [2]; 1.0 μg/ml, indexed to TNFα control (Table 26)) was 1.80 and the “IL-6 Index” value (IL-6 [3]) was 0.37*. The “Concentration of maximum stimulation of adiponectin secretion” value (adiponectin [4]) was 1.25 µg/mL and the “% Stimulation of adiponectin secretion (maximum)” value (“% Stimulation” for short) (adiponectin [4]; [7]) was 12%.
For CN(C)C(=N)N=C(N)N [metformin], the “serum glucose relative to the controls” value (db/db mice) was “decreased”.
For O=C(O)c1ccccc1O [salicylic acid], the “% Inhibition of IL-6 secretion (maximum)” value (IL-6 [3]) was 48* %, the “IL-6 Index” value (IL-6 [3]) was 0.52* and the “induction of adiponectin secretion” value (adiponectin [4]) was “failed to induce adiponectin secretion”. For the same molecule, the “Adiponectin Index” value (adiponectin [4]; at the concentration of maximum stimulation, indexed to LPS control) was 0.96.
CC(C)CCC1=C(O)C(C(=O)C(C)C)=C(O)C(CCC(C)C)(CCC(C)C)C1=O [Hexahydro colupulone, hexahydrocolupulone] was tested, and the “Test Material at Half Maximal Secretion” value (adiponectin [5]; slope of Hofstee plots) was 3.2 µg/mL.
With CC(=O)Oc1ccccc1C(=O)O [Aspirin, aspirin] the “induction of adiponectin secretion” value (adiponectin [4]) was “failed to induce adiponectin secretion”.
In the case of C[C@]12C=CC(=O)C=C1CC[C@@H]1[C@@H]2[C@@H](O)C[C@@]2(C)[C@H]1CC[C@]2(O)C(=O)CO [prednisolone], the arthritic index (DBA/J mice; 10 mg/kg, days 30-42) is reported as “Significant reductions” and the “serum IL-6 levels” value (DBA/J mice; mouse, in vivo) is reported as “reached a statistical significance”.
In the case of CC(C)Cc1ccc(C(C)C(=O)O)cc1 (centres unmarked) [ibuprofen], the “% Stimulation” value (adiponectin [4]; [7]) is reported as 22%.
With Cc1c(C)c2c(c(C)c1O)CCC(C)(COc1ccc(CC3SC(=O)NC3=O)cc1)O2 (centres unmarked) [Troglitazone, troglitazone] the Adiponectin/IL-6 (adiponectin [5]; 5.0 μg/ml, ratio of adiponectin index to IL-6 index (Table 21)) was 1.12, the “Concentration of maximum stimulation of adiponectin secretion” value (adiponectin [4]) was 0.625 µg/mL and the “% Stimulation” value (adiponectin [4]; [7]) was 15%.
COc1ccc2c(c1)c(CC(=O)O)c(C)n2C(=O)c1ccc(Cl)cc1 [Indomethacin, indomethacin] was tested, and the “% Stimulation” value (adiponectin [4]; [7]) was 9% and the “IL-6 secretion in the presence of TNFα” value (IL-6 [6]) was “no anti-inflammatory effect”.
